Assay results: patent US10385103B2, “Cell-permeable (ICP)-SOCS3 recombinant protein and uses thereof” (CELLIVERY THERAPEUTICS, INC., priority 2014, dated 2019)

System: RAW 264.7 cells
Assay: Quantitative cell-permeability of FITC-labeled aMTD- or rPeptide-fused CRA recombinant proteins (flow cytometry)
Format: cell-based
Settings: for Relative Ratio to aMTD AVE: cell-permeability of rPeptide-fused CRA recombinant protein relative to average of 240 aMTDs
Description: The aMTDs and rPeptides were fluorescently labeled and compared based on the critical factors for cell-permeability by using flow cytometry and confocal laser scanning microscopy (FIGS. 5 to 8). The cellular uptake of the peptide-fused non-functional cargo recombinant proteins could quantitatively be evaluated in flow cytometry, while confocal laser scanning microscopy allows intracellular uptake to be assessed visually. The analysis included recombinant proteins fused to a negative control [rP38] that has opposite characteristics (hydrophilic and aromatic sequence: […] NO: 952)) to the aMTDs (hydrophobic and aliphatic sequences). Relative cell-permeability (relative fold) of aMTDs to the negative control was also analyzed (Table 23 and FIG. 9). […] RAW 264.7 cells were treated with 10 μM FITC-labeled recombinant proteins for 1 hour at 37° C., washed three times with cold PBS, treated with 0.25% tripsin/EDTA (Sigma-Aldrich, St. Louis, Mo.) for 20 minutes at 37° C. to remove cell-surface bound proteins. Cell-permeability of these recombinant proteins were analyzed by flow cytometry (Guava, Millipore, Darmstadt, Germany) using the FlowJo cytometric analysis software (FIGS. 5 to 6).

[1] = cell-permeability of aMTD-fused CRA recombinant protein relative to negative control (A: rP38)
[2] = cell-permeability of aMTD-fused CRA recombinant protein relative to reference CPP (B: MTM12)
[3] = cell-permeability of aMTD-fused CRA recombinant protein relative to reference CPP (C: MTD85)
[4] = cell-permeability relative to negative control rP38 (A type), aMTD-fused CRA recombinant protein, 10 μM FITC-labeled, 1 hour, 37° C., RAW 264.7 cells
[5] = cell-permeability relative to reference CPP MTD85 (C type), aMTD-fused CRA recombinant protein, 10 μM FITC-labeled, 1 hour, 37° C., RAW 264.7 cells
[6] = cell-permeability relative to reference CPP MTM12 (B type), aMTD-fused CRA recombinant protein, 10 μM FITC-labeled, 1 hour, 37° C., RAW 264.7 cells
[7] = 10 μM FITC-labeled, 1 hour, 37° C., RAW 264.7 cells

Substance | Relative Ratio (Fold) A [1] | Relative Ratio (Fold) B [2] | Relative Ratio (Fold) C [3] | Relative Ratio (Fold) A [4] | Relative Ratio (Fold) C [5] | Relative Ratio (Fold) B [6] | also measured
141 (AVIVLPALAVAP; Amino acid Sequence of aMTD141) [compound 141] | 9.4 Fold | 6.3 Fold | 3.2 Fold | – | – | – | –
143 (AVLAVPAVLVAP; Amino acid Sequence of aMTD143) [compound 143] | – | – | – | 3.3 Fold | 1.1 Fold | 2.2 Fold | –
145 (LLAVVPAVALAP; Amino acid Sequence of aMTD145) [compound 145] | 9.5 Fold | 6.3 Fold | 3.2 Fold | – | – | – | –
161 (AVIALPALIAAP; Amino acid Sequence of aMTD161) [compound 161] | 34.5 Fold | 23.0 Fold | 11.6 Fold | – | – | – | –
167 (VAIAIPAALAIP; Amino acid Sequence of rPeptide ID 167) [compound 167] | – | – | – | – | – | – | Relative Ratio to aMTD AVE [7]: 0.50
182 (ALIAPVVALVAP; Amino acid Sequence of aMTD182) [compound 182] | – | – | – | 4.0 Fold | 1.4 Fold | 2.7 Fold | –
183 (LLAAPVVIALAP; Amino acid Sequence of aMTD183) [compound 183] | – | – | – | 6.0 Fold | 2.0 Fold | 4.0 Fold | –
184 (LAAIVPAIIAVP; Amino acid Sequence of aMTD184) [compound 184] | – | – | – | 4.8 Fold | 1.6 Fold | 3.2 Fold | –
185 (AALVLPLIIAAP; Amino acid Sequence of aMTD185) [compound 185] | 8.5 Fold | 5.7 Fold | 2.9 Fold | – | – | – | –
201 (LALAVPALAALP; Amino acid Sequence of aMTD201) [compound 201] | – | – | – | 4.2 Fold | 1.4 Fold | 2.8 Fold | –
221 (AAILAPIVALAP; Amino acid Sequence of aMTD221) [compound 221] | 10.9 Fold | 7.3 Fold | 3.7 Fold | – | – | – | –
222 (ALLIAPAAVIAP; Amino acid Sequence of aMTD222) [compound 222] | 32.6 Fold | 21.7 Fold | 11.0 Fold | – | – | – | –
223 (AILAVPIAVVAP; Amino acid Sequence of aMTD223) [compound 223] | 33.0 Fold | 22.1 Fold | 11.2 Fold | – | – | – | –
225 (VAALLPAAAVLP; Amino acid Sequence of aMTD225) [compound 225] | 18.3 Fold | 12.2 Fold | 6.2 Fold | – | – | – | –
227 (LAAIVPIAAAVP; Amino acid Sequence of rPeptide ID 227) [compound 227] | – | – | – | – | – | – | Relative Ratio to aMTD AVE [7]: 0.08
241 (AAAVVPVLLVAP; Amino acid Sequence of aMTD241) [compound 241] | 16.6 Fold | 11.0 Fold | 5.6 Fold | – | – | – | Relative Ratio to aMTD AVE [7]: 0.33
242 (AALLVPALVAAP; Amino acid Sequence of aMTD242) [compound 242] | 14.6 Fold | 9.7 Fold | 4.9 Fold | – | – | – | –

Substance | Relative Ratio (Fold) A [1] | Relative Ratio (Fold) B [2] | Relative Ratio (Fold) C [3] | Relative Ratio (Fold) A [4] | Relative Ratio (Fold) C [5] | Relative Ratio (Fold) B [6] | also measured
243 (AAVLLPVALAAP; Amino acid Sequence of aMTD243) [compound 243] | – | – | – | 5.9 Fold | 2.0 Fold | 3.9 Fold | –
245 (AAALAPVLALVP; Amino acid Sequence of aMTD245) [compound 245] | 7.5 Fold | 5.0 Fold | 2.5 Fold | – | – | – | –
261 (LVLVPLLAAAAP; Amino acid Sequence of aMTD261) [compound 261] | 18.5 Fold | 12.3 Fold | 6.2 Fold | – | – | – | –
262 (ALIAVPAIIVAP; Amino acid Sequence of aMTD262) [compound 262] | – | – | – | 5.5 Fold | 1.9 Fold | 3.7 Fold | –
263 (ALAVIPAAAILP; Amino acid Sequence of aMTD263) [compound 263] | 9.0 Fold | 6.0 Fold | 3.0 Fold | – | – | – | –
264 (LAAAPVVIVIAP; Amino acid Sequence of aMTD264) [compound 264] | 18.2 Fold | 12.1 Fold | 6.1 Fold | – | – | – | Relative Ratio (Fold) A (relative cell-permeability of aMTD vs reference A (not defined)): 18.2 Fold; Relative Ratio (Fold) B (relative cell-permeability of aMTD vs reference CPP B: MTM12): 12.1 Fold; Relative Ratio (Fold) C (relative cell-permeability of aMTD vs reference CPP C: MTD85): 6.1 Fold
265 (VLAIAPLLAAVP; Amino acid Sequence of aMTD265) [compound 265] | – | – | – | 6.0 Fold | 2.0 Fold | 4.0 Fold | –
281 (ALIVLPAAVAVP; Amino acid Sequence of aMTD281) [compound 281] | 13.3 Fold | 8.9 Fold | 4.5 Fold | 13.3 Fold | 4.5 Fold | 8.9 Fold | –
282 (VLAVAPALIVAP; Amino acid Sequence of aMTD282) [compound 282] | 11.8 Fold | 7.9 Fold | 4.0 Fold | – | – | – | –
283 (AALLAPALIVAP; Amino acid Sequence of aMTD283) [compound 283] | – | – | – | 3.1 Fold | 1.0 Fold | 2.0 Fold | –
284 (ALIAPAVALIVP; Amino acid Sequence of aMTD284) [compound 284] | – | – | – | 2.8 Fold | 0.9 Fold | 1.8 Fold | –
285 (AIVLLPAAVVAP; Amino acid Sequence of aMTD285) [compound 285] | 13.3 Fold | 9.9 Fold | 4.5 Fold | – | – | – | –
301 (VIAAPVLAVLAP; Amino acid Sequence of aMTD301) [compound 301] | – | – | – | 6.0 Fold | 2.0 Fold | 4.0 Fold | –
302 (LALAPALALLAP; Amino acid Sequence of aMTD302) [compound 302] | 10.2 Fold | 6.8 Fold | 3.4 Fold | – | – | – | –
304 (AIILAPIAAIAP; Amino acid Sequence of aMTD304) [compound 304] | – | – | – | 4.4 Fold | 1.5 Fold | 3.0 Fold | –
305 (IALAAPILLAAP; Amino acid Sequence of aMTD305) [compound 305] | – | – | – | 4.8 Fold | 1.6 Fold | 3.2 Fold | –
